Measured values published in paper PMC9405216, “Antimicrobial and Cytotoxic Cyathane-Xylosides from Cultures of the Basidiomycete Dentipellis fragilis” (Antibiotics, 2022).
≈ marks a conversion by molar mass, not a printed value.

What was measured:
Format in all cases: cell-based
[1] = test system: Candida albicans (DSM 1665); test: Serial dilution MIC assay, Candida albicans; conditions: DSM1665, serial dilution 67-0.5 µg/mL, overnight incubation, n.i. = no inhibition, read-out: MIC
Method: (§1) Serial dilution assays in 96-well microtiter plates were performed according to our standard protocol in order to determine the minimum inhibitory concentrations (MICs) of pure isolated compounds against different microorganisms. Essentially, aliquots of compounds 1–5 and 9 (20 µL), each with an initial concentration of 1 mg/mL, were diluted in MeOH together with the respective microorganisms to concentrations ranging between 67 µg/mL and 0.5 µg/mL in the 96-well plates, followed by overnight incubation. The MIC was then determined as the lowest concentration at which no growth of the test organism was observed. A broad spectrum of clinically approved test pathogens and sensitivity indicator strains were used in the assays (Table 4 and Table 5). Ciprofloxacin, oxytetracycline, kanamycin, and gentamycin were used as positive controls against bacterial pathogens, while nystatin was used as the positive control against fungi.

[2] = test system: Rhodotorula glutinis (DSM 10134); test: Serial dilution MIC assay, Rhodotorula glutinis; conditions: DSM10134, serial dilution 67-0.5 µg/mL, overnight incubation, n.i. = no inhibition, read-out: MIC
Method: as §1

[3] = test system: Actinobacter baumannii (DSM 30008); test: Serial dilution MIC assay, Actinobacter baumannii; conditions: serial dilution 67-0.5 µg/mL, overnight incubation, n.i. = no inhibition, read-out: MIC
Method: as §1

[4] = test system: A549 (ACC107) human lung carcinoma; test: MTT cytotoxicity test, A549; conditions: Homo sapiens, 120 h, five days incubation
Excerpt: (§2) A panel of mammalian cell lines was used to determine the cytotoxicity of the compounds following a previously published protocol. The assay was initially performed using the sensitive cell lines KB3.1 (human endocervical adenocarcinoma) and L929 (mouse fibroblasts). Active compounds were further tested using the cell lines MCF-7 (human breast adenocarcinoma), PC-3 (human prostate adenocarcinoma), SKOV-3 (ovarian carcinoma), A549 (human lung carcinoma), and A431 (human squamous cell carcinomas) (Table 6). The cell lines A549, KB 3.1, and L929 were cultured in DMEM (Gibco, provided by Thermo Fisher Scientific), PC-3 in F12-K (Gibco) and MC-7, and SKOV-3 and A431 in RPMI (Gibco). With the exception of A549, all cell lines were supplemented with 10% bovine serum (Gibco). All cell lines were cultured at 37 °C. The L929 and KB 3.1 cell lines were cultivated under an atmosphere of 10% (v/v) carbon dioxide. Cytotoxicity tests were then carried out using MTT (3-(4,5-dimethylthiazol-2-yl)-2,5-diphenyltetrazolium bromide) in 96-well microtiter plates. Serial dilutions of the compounds (60 µL aliquots, each with an initial concentration of 1 mg/mL) were added into 120 µL aliquots of cell suspension (50000 cells/mL) in the 96-well plates. These were incubated for five days, after which an MTT assay was performed. The absorbance was taken at 590 nm using an Elisa plate reader (Victor, Überlingen, Germany). The half-maximal inhibitory concentration (IC50), the concentration at which cell growth inhibition was 50% of the control, was calculated as described elsewhere.

[5] = test system: Schizosaccharomyces pombe (DSM 70572); test: Serial dilution MIC assay, Schizosaccharomyces pombe; conditions: DSM70572, serial dilution 67-0.5 µg/mL, overnight incubation, n.i. = no inhibition, read-out: MIC
Method: as §1

[6] = test system: Bacillus subtilis (DSM 10); test: Serial dilution MIC assay, Bacillus subtilis; conditions: DSM10, serial dilution 67-0.5 µg/mL, overnight incubation, n.i. = no inhibition, read-out: MIC
Method: as §1

[7] = test system: Escherichia coli (DSM 1116); test: Serial dilution MIC assay, Escherichia coli; conditions: DSM1116, serial dilution 67-0.5 µg/mL, overnight incubation, n.i. = no inhibition, read-out: MIC
Method: as §1

[8] = test system: KB3.1 (ACC158) human endocervical adenocarcinoma; test: MTT cytotoxicity test, KB3.1; conditions: KB 3-1, 120 h, KB3.1 human endocervical adenocarcinoma, five days incubation, n.c. = no cytotoxicity, read-out: IC50
Excerpt: as §2

[9] = test system: PC-3 (ACC465) human prostate adenocarcinoma; test: MTT cytotoxicity test, PC-3; conditions: 120 h, PC-3 human prostate adenocarcinoma, five days incubation
Excerpt: as §2

[10] = test system: SKOV-3 (ovarian carcinoma); test: MTT cytotoxicity test, SKOV-3; conditions: Homo sapiens, SK-OV-3, 120 h, five days incubation
Excerpt: as §2

[11] = test system: A431 (ACC91) human squamous cell carcinomas; test: MTT cytotoxicity test, A431; conditions: A-431, 120 h, five days incubation
Excerpt: as §2

[12] = test system: Mycolicibacterium smegmatis (ATCC 700084); test: Serial dilution MIC assay, Mycolicibacterium smegmatis; conditions: ATCC700084, serial dilution 67-0.5 µg/mL, overnight incubation, n.i. = no inhibition, read-out: MIC
Method: as §1

[13] = test system: L929 (ACC2) mouse fibroblasts; test: MTT cytotoxicity test, L929; conditions: 120 h, five days incubation, n.c. = no cytotoxicity, read-out: IC50
Excerpt: as §2

[14] = test system: Pichia anomala (DSM 6766); test: Serial dilution MIC assay, Pichia anomala; conditions: Hansenula anomala, DSM6766, serial dilution 67-0.5 µg/mL, overnight incubation, n.i. = no inhibition, read-out: MIC
Method: as §1

[15] = test system: Chromobacterium violaceum (DSM 30191); test: Serial dilution MIC assay, Chromobacterium violaceum; conditions: DSM30191, serial dilution 67-0.5 µg/mL, overnight incubation, n.i. = no inhibition, read-out: MIC
Method: as §1

[16] = test system: MCF-7 (A115) human breast adenocarcinoma; test: MTT cytotoxicity test, MCF-7; conditions: MCF7, 120 h, MCF-7 human breast adenocarcinoma, five days incubation
Excerpt: as §2

[17] = test system: Pseudomonas aeruginosa (DSM PA14); test: Serial dilution MIC assay, Pseudomonas aeruginosa; conditions: serial dilution 67-0.5 µg/mL, overnight incubation, n.i. = no inhibition
Method: as §1

[18] = test system: Mucor hiemalis (DSM 2656); test: Serial dilution MIC assay, Mucor hiemalis; conditions: DSM2656, serial dilution 67-0.5 µg/mL, overnight incubation, n.i. = no inhibition, read-out: MIC
Method: as §1

[19] = test system: other cell lines (MCF-7, A549, PC-3, SKOV-3, A431); test: MTT cytotoxicity test, other cell lines of the panel; conditions: range over the cell lines other than L929 and KB3.1 (Table 6)
Excerpt: as §2, with “These were incubated for five days, after which an MTT assay was performed.” left out, “The half-maximal inhibitory concentration (IC50), the concentration at which cell growth inhibition was 50% of the control, was calculated as described elsewhere.” left out

[20] = test system: Staphylococcus aureus (DSM 346); test: Serial dilution MIC assay, Staphylococcus aureus; conditions: DSM346, serial dilution 67-0.5 µg/mL, overnight incubation, n.i. = no inhibition, read-out: MIC
Method: as §1

[21] = test system: tested microorganisms (bacteria and fungi); test: Serial dilution MIC assays, whole panel of tested strains; conditions: range over most tested bacterial and fungal strains; read-out: minimum inhibitory concentrations (MICs) against most tested strains
Method: as §1

CC(C)C1=C2[C@H]3CC=C(C=O)[C@@H]4[C@H](O[C@@H]5OC[C@@H](O)C(=O)[C@@]54O)[C@]3(C)CC[C@@]2(C)CC1 [Compound 9, striatal D]
MIC [1]: 33.3 µg/mL (≈ 77.3 µM) | MIC [2]: 1 µg/mL (≈ 2.32 µM) | MIC [3]: 66.6 µg/mL (≈ 155 µM) | IC50 [4]: 0.1 µM | MIC [5]: 4.2 µg/mL (≈ 9.76 µM) | MIC [6]: 1 µg/mL (≈ 2.32 µM) | MIC [7]: 66.6 µg/mL (≈ 155 µM) | IC50 [8]: 0.4 µM | IC50 [9]: 0.4 µM | IC50 [10]: 0.1 µM | IC50 [11]: 1 µM | MIC [12]: 33.3 µg/mL (≈ 77.3 µM) | IC50 [13]: 0.8 µM | MIC [14]: 33.3 µg/mL (≈ 77.3 µM) | MIC [15]: 16.6 µg/mL (≈ 38.6 µM) | IC50 [16]: 0.1 µM | MIC [17]: n.i. | MIC [18]: 2.1 µg/mL (≈ 4.88 µM) | IC50 [19]: 0.1 to 1 µM | MIC [20]: 2.1 µg/mL (≈ 4.88 µM) | MIC [21]: 1 to 66.6 µg/mL (≈ 2.32 to 155 µM)
